ChEMBL document CHEMBL3525952, “A Baeyer-Villiger oxidation specifically catalyzed by human flavin-containing monooxygenase 5” (Drug Metab Dispos, 2011)

Key:
[1] = Drug metabolism in dog liver S9 fraction assessed as ER-879123 formation at 50 uM after 60 mins in presence of NAD+ and alcohol dehydrogenase inhibitor 4-methylpyrazole by LC-MS/MS method; assay type: ADME, subcellular, Canis lupus familiaris; conditions: s9, 1 h
[2] = biological target: T1, Flavin-containing monooxygenase 5 (Homo sapiens, UniProt P49326); experiment: Drug metabolism assessed as human recombinant FMO5-mediated ER-879123 formation in absence of rat liver cytosolic fractions at 50 uM after 60 mins by LC-MS/MS method; assay type: ADME, tissue-based; conditions: recombinant enzyme, 1 h
T1 sequence (P49326 whole entry): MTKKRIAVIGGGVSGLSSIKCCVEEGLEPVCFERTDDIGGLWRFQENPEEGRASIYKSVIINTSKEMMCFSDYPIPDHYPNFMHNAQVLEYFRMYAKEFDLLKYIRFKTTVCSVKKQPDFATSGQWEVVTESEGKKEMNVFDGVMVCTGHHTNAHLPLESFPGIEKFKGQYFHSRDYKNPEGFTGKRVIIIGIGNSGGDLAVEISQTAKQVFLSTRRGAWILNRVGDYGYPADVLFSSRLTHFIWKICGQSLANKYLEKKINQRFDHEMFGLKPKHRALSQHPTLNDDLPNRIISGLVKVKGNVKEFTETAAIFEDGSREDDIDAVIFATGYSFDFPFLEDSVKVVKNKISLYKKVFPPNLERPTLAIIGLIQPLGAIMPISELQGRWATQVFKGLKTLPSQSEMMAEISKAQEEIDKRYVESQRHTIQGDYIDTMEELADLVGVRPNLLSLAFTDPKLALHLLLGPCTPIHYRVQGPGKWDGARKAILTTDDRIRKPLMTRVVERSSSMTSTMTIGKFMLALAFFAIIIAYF

[3] = Drug metabolism in dog liver S9 fraction assessed as ER-879123 formation at 50 uM after 60 mins in presence of NAD+ and FMO1 and FMO3 substrate/inhibitor methimazole by LC-MS/MS method; assay type: ADME, subcellular, Canis lupus familiaris; conditions: s9, 1 h
[4] = Drug metabolism in human liver S9 fraction assessed as ER-879123 formation at 50 uM after 60 mins in presence of NADP+ by LC-MS/MS method; assay type: ADME, subcellular; conditions: s9, 1 h
Liver microsome [5] = experiment: Drug metabolism in rat liver microsomes assessed as ER-879123 formation at 50 uM after 60 mins in presence of NADPH by LC-MS/MS method; assay type: ADME; conditions: 1 h
[6] = biological target: T2, Flavin-containing monooxygenase 3 (Homo sapiens, UniProt P31513); experiment: Drug metabolism assessed as human recombinant FMO3-mediated ER-879123 formation in presence of dog liver cytosolic fractions and NAD+ at 50 uM after 60 mins by LC-MS/MS method; assay type: ADME, tissue-based; conditions: recombinant enzyme, 1 h
T2 sequence (P31513 whole entry): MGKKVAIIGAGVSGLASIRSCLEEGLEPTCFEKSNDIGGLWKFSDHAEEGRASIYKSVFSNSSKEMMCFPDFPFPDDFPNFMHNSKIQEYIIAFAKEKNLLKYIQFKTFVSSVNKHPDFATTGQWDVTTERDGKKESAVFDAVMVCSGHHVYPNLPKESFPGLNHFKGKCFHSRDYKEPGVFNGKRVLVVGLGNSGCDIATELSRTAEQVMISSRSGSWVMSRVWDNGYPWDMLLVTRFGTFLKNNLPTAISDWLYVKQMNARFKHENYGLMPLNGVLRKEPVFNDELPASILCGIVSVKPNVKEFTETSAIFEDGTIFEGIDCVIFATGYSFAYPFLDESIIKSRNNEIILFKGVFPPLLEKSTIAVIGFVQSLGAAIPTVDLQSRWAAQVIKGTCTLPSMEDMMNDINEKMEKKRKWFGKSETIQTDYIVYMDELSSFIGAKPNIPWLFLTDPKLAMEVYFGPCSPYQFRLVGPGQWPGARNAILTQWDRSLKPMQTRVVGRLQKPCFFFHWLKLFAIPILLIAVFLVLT

[7] = Drug metabolism in dog liver S9 fraction assessed as ER-879123 formation at 50 uM after 60 mins in presence of NAD+ and carboxylesterase inhibitor BNPP by LC-MS/MS method; assay type: ADME, subcellular, Canis lupus familiaris; conditions: 1 h
[8] = Drug metabolism in human liver S9 fraction assessed as ER-879123 formation at 50 uM after 60 mins in presence of NAD+ and FMO1 and FMO3 substrate/inhibitor methimazole by LC-MS/MS method; assay type: ADME, subcellular; conditions: s9, 1 h
[9] = Drug metabolism in human liver S9 fraction assessed as ER-879123 formation at 50 uM after 60 mins in presence of NAD+ and alcohol dehydrogenase inhibitor 4-methylpyrazole by LC-MS/MS method; assay type: ADME, subcellular; conditions: s9, 1 h
Liver microsome [10] = experiment: Drug metabolism in dog liver microsomes assessed as ER-879123 formation at 50 uM after 60 mins in presence of NADPH by LC-MS/MS method; assay type: ADME, Canis lupus familiaris; conditions: 1 h
[11] = Drug metabolism in dog liver S9 fraction assessed as ER-879123 formation at 50 uM after 60 mins in presence of NAD+ by LC-MS/MS method; assay type: ADME, subcellular, Canis lupus familiaris; conditions: s9, 1 h
[12] = Drug metabolism in human liver S9 fraction assessed as ER-879123 formation at 50 uM after 60 mins in presence of NAD+ and carboxylesterase inhibitor BNPP by LC-MS/MS method; assay type: ADME, subcellular; conditions: 1 h
[13] = biological target: T1, Flavin-containing monooxygenase 5; experiment: Drug metabolism assessed as human recombinant FMO5-mediated ER-879123 formation in presence of rat liver cytosolic fractions at 50 uM after 60 mins by LC-MS/MS method; assay type: ADME, tissue-based; conditions: recombinant enzyme, 1 h
[14] = Drug metabolism in 50 degC treated dog liver S9 fraction assessed as ER-879123 formation at 50 uM after 60 mins in absence of NAD+ by LC-MS/MS method; assay type: ADME, tissue-based, Canis lupus familiaris; conditions: s9, 1 h
[15] = biological target: T3, Flavin-containing monooxygenase 1 (Homo sapiens, UniProt Q01740); experiment: Drug metabolism assessed as human recombinant FMO1-mediated ER-879123 formation in presence of dog liver cytosolic fractions and NAD+ at 50 uM after 60 mins by LC-MS/MS method; assay type: ADME, tissue-based; conditions: recombinant enzyme, 1 h
T3 sequence (Q01740 whole entry): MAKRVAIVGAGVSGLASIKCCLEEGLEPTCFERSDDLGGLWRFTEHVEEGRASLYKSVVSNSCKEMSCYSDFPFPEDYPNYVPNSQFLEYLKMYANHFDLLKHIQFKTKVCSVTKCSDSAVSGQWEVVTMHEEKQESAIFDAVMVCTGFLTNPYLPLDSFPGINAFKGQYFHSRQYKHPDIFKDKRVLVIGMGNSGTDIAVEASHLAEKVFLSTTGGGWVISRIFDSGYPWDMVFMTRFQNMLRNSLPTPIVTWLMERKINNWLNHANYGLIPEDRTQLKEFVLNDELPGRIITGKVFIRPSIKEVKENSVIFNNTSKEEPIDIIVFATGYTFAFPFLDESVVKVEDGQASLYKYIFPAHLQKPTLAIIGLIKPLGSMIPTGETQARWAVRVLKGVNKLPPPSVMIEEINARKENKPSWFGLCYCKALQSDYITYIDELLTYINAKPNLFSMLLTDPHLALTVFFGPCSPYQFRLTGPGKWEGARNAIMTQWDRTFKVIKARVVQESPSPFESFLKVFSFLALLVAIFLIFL

Liver microsome [16] = experiment: Drug metabolism in human liver microsomes assessed as ER-879123 formation at 50 uM after 60 mins in presence of NADPH by LC-MS/MS method; assay type: ADME; conditions: 1 h
[17] = Drug metabolism in rat hepatocytes assessed as ER-879123 formation at 50 uM after 120 mins in presence of NADPH by LC-MS/MS method; assay type: ADME, cell-based, Hepatocyte; conditions: 2 h
[18] = Drug metabolism in 50 degC treated human liver S9 fraction assessed as ER-879123 formation at 50 uM after 60 mins in absence of NAD+ by LC-MS/MS method; assay type: ADME, tissue-based; conditions: s9, 1 h
[19] = Drug metabolism in dog hepatocytes assessed as ER-879123 formation at 50 uM after 120 mins in presence of NADPH by LC-MS/MS method; assay type: ADME, cell-based, Canis lupus familiaris, Hepatocyte; conditions: 2 h
[20] = biological target: T1, Flavin-containing monooxygenase 5; experiment: Drug metabolism assessed as human recombinant FMO5-mediated ER-879123 formation in absence of dog liver cytosolic fractions at 50 uM after 60 mins by LC-MS/MS method; assay type: ADME, tissue-based; conditions: recombinant enzyme, 1 h
[21] = Drug metabolism in human liver S9 fraction assessed as ER-879123 formation at 50 uM after 60 mins in presence of NAD+ by LC-MS/MS method; assay type: ADME, subcellular; conditions: s9, 1 h
[22] = biological target: T1, Flavin-containing monooxygenase 5; experiment: Drug metabolism assessed as human recombinant FMO5-mediated ER-879123 formation in presence of dog liver cytosolic fractions at 50 uM after 60 mins by LC-MS/MS method; assay type: ADME, tissue-based; conditions: recombinant enzyme, 1 h
[23] = biological target: T1, Flavin-containing monooxygenase 5; experiment: Drug metabolism assessed as human recombinant FMO5-mediated ER-879123 formation in presence of human liver cytosolic fractions at 50 uM after 60 mins by LC-MS/MS method; assay type: ADME, tissue-based; conditions: recombinant enzyme, 1 h
[24] = Drug metabolism in dog liver S9 fraction assessed as ER-879123 formation at 50 uM after 60 mins in presence of NADP+ by LC-MS/MS method; assay type: ADME, subcellular, Canis lupus familiaris; conditions: s9, 1 h
[25] = Drug metabolism in human hepatocytes assessed as ER-879123 formation at 50 uM after 120 mins in presence of NADPH by LC-MS/MS method; assay type: ADME, cell-based, Hepatocyte; conditions: 2 h
[26] = biological target: T1, Flavin-containing monooxygenase 5; experiment: Drug metabolism assessed as human recombinant FMO5-mediated ER-879123 formation in absence of human liver cytosolic fractions at 50 uM after 60 mins by LC-MS/MS method; assay type: ADME, tissue-based; conditions: recombinant enzyme, 1 h

Drug metabolism [1]: metabolite_not_detected
Drug metabolism [2]: metabolite_not_detected
Drug metabolism [3]: metabolite_detected
Drug metabolism [4]: metabolite_detected
Drug metabolism (Liver microsome [5]): metabolite_not_detected
Drug metabolism [6]: metabolite_not_detected
Drug metabolism [7]: metabolite_not_detected
Drug metabolism [8]: metabolite_detected
Drug metabolism [9]: metabolite_not_detected
Drug metabolism (Liver microsome [10]): metabolite_not_detected
Drug metabolism [11]: metabolite_detected
Drug metabolism [12]: metabolite_not_detected
Drug metabolism [13]: metabolite_detected
Drug metabolism [14]: metabolite_not_detected
Drug metabolism [15]: metabolite_not_detected
Drug metabolism (Liver microsome [16]): metabolite_not_detected
Drug metabolism [17]: metabolite_detected
Drug metabolism [18]: metabolite_not_detected
Drug metabolism [19]: metabolite_detected
Drug metabolism [20]: metabolite_not_detected
Drug metabolism [21]: metabolite_detected
Drug metabolism [22]: metabolite_detected
Drug metabolism [23]: metabolite_detected
Drug metabolism [24]: metabolite_detected
Drug metabolism [25]: metabolite_detected
Drug metabolism [26]: metabolite_not_detected
Compound: O=c1[nH]nc2c3c(cccc13)Oc1ccc(CN3CCC(O)CC3)cc1-2 [E-7016]
